Our source for the IC50 values is ChEMBL document CHEMBL4330065, “Type IIA - Type IIB protein tyrosine kinase inhibitors hybridization as an efficient approach for potent multikinase inhibitor development: Design, synthesis, anti-proliferative activity, multikinase inhibitory activity and molecular modeling of novel indolinone-based ureides and amides” (Eur J Med Chem, 2019).

Assay [1] can be described thus: Cytotoxicity against human HFB4 cells after 48 hrs by SRB assay. The format is cell-based.
Assay [2] relates to HepG2. The experiment in a line: Antiproliferative activity against human HepG2 cells after 48 hrs by SRB assay. The format is functional, cell-based. Particulars: HepG2, 48 h.
For assay [3], the system named is A549. The experiment in a line: cells. Particulars: Homo sapiens, A549, 48 h.
Description: Antiproliferative activity against human A549 cells after 48 hrs by SRB assay
In assay [4] the test system is MCF7. In words: cells. To be noted: Homo sapiens, MCF7, 48 h.
Description: Antiproliferative activity against human MCF7 cells after 48 hrs by SRB assay
In assay [5] the test system is A498. The experiment in a line: Antiproliferative activity against human A498 cells after 48 hrs by SRB assay. In kind it is functional, cell-based. To be noted: A498, 48 h.
For assay [6], the target named is Vascular endothelial growth factor receptor 2 (Homo sapiens, UniProt P35968).
Description: Inhibition of VEGFR-2 (unknown origin) using biotinylated poly-GluTyr (4:1) as substrate after 5 mins by ELISA
Assay [7] addresses Platelet-derived growth factor receptor beta (Homo sapiens, UniProt P09619). In words: Inhibition of PDGFR-beta (unknown origin) by ELISA.
Assay [8] has as its target Fibroblast growth factor receptor 1 (Homo sapiens, UniProt P11362). In words: Inhibition of FGFR-1 (unknown origin) by ELISA.

Each structure is given as a SMILES string.

Platelet-derived growth factor receptor beta, sequence (P09619 whole entry): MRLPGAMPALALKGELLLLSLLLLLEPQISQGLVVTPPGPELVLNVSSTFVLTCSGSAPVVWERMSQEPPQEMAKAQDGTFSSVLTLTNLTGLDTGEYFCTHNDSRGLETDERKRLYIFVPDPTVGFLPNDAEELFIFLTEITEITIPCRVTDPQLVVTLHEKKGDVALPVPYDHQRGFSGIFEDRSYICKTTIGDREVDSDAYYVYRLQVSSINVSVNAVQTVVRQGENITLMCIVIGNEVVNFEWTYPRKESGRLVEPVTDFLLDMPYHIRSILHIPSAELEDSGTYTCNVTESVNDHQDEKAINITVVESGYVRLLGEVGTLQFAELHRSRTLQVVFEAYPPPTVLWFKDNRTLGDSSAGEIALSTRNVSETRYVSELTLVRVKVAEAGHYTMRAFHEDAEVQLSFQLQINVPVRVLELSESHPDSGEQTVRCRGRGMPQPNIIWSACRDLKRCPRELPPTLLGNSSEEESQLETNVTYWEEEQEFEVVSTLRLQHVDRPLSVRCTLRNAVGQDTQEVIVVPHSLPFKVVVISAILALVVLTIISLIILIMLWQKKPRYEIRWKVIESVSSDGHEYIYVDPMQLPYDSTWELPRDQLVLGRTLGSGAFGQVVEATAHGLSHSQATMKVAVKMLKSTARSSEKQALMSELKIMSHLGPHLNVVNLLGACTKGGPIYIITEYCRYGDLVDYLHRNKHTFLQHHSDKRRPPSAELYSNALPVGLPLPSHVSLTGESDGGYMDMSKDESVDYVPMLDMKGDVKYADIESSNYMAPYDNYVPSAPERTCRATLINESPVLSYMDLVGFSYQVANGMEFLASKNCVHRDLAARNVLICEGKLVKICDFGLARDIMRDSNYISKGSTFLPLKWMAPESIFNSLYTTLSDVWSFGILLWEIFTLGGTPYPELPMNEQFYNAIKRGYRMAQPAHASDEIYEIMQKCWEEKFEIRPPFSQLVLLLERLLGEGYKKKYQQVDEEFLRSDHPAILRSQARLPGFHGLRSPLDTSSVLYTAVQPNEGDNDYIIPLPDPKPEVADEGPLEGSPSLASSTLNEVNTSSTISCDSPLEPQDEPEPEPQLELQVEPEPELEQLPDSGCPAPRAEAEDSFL
Fibroblast growth factor receptor 1, sequence (P11362 whole entry): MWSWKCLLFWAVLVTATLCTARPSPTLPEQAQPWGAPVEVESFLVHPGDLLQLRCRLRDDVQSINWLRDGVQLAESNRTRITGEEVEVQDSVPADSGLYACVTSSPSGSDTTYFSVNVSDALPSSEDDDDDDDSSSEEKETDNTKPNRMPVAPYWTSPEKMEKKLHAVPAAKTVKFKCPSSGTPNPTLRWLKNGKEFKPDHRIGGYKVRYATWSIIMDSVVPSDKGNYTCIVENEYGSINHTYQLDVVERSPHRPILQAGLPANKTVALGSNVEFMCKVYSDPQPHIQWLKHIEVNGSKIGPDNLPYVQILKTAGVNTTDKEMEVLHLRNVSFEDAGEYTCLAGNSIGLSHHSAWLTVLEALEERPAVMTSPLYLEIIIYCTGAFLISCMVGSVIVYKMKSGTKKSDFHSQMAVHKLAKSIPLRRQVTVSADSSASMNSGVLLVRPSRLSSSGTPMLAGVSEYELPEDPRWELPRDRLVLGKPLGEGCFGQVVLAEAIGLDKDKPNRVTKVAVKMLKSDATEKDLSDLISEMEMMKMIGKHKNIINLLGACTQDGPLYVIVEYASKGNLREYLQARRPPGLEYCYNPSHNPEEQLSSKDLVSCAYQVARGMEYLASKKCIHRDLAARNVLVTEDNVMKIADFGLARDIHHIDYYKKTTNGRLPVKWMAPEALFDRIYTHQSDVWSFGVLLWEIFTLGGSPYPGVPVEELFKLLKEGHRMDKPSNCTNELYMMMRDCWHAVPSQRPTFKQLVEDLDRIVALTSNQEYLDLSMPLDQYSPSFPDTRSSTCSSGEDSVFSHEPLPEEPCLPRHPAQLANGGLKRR
Vascular endothelial growth factor receptor 2, sequence (P35968 whole entry): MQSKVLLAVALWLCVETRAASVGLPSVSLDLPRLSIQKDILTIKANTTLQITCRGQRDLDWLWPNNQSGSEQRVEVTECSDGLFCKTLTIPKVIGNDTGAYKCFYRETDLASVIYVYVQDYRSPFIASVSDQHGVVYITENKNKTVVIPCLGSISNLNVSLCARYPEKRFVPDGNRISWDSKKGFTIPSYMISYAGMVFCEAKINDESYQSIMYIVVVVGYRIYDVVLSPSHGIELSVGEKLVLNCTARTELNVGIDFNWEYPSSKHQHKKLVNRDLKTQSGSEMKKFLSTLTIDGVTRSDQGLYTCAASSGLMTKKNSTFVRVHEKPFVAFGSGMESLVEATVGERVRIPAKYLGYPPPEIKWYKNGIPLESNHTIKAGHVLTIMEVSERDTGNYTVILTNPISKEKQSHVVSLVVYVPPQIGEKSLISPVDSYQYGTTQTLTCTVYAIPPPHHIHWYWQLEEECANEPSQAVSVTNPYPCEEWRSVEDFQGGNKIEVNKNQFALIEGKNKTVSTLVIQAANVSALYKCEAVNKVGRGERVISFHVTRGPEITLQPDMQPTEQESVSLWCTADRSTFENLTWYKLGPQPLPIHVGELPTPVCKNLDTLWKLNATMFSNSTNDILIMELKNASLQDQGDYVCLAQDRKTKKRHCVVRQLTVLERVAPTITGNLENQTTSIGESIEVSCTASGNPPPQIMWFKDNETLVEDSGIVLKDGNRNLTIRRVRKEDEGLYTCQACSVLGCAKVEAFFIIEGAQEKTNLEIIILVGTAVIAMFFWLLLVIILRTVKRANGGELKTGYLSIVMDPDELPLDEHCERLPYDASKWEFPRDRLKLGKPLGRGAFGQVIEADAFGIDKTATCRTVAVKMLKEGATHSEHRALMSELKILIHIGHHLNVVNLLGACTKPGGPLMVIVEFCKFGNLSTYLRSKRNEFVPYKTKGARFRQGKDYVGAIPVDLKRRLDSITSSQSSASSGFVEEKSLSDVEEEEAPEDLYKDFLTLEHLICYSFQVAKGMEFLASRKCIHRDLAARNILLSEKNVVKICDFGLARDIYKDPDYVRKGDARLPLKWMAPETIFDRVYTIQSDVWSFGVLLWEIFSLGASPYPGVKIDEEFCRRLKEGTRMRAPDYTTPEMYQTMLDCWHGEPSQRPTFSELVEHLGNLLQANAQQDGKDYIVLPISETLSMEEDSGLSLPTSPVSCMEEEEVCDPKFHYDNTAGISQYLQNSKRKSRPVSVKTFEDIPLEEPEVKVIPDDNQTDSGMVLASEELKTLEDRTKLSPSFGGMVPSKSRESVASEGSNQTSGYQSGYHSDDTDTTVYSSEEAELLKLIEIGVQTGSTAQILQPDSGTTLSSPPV

As to `CNC(=O)c1cc(Oc2ccc(NC(=O)Nc3ccc(Cl)c(C(F)(F)F)c3)cc2)ccn1` [SORAFENIB], the IC50 was found to be 85000 nM in assay [1], 5230 nM in assay [2], 6110 nM in assay [3] and 4270 nM in assay [4].

Turning to `COc1cccc(NC(=O)Nc2ccc(C(=O)N/N=C3\C(=O)Nc4ccc(OC)cc43)cc2)c1`, the IC50 in assay [1] was 45800 nM; in assay [2] it was 2930 nM; in assay [5] (read-out: IC50), 780 nM; in assay [3], over 100000 nM; in assay [4], 27000 nM; in assay [6], 270 nM. Further, the IC50 is 110 nM in assay [7] and 300 nM in assay [8].

With `COc1ccc(NC(=O)Nc2ccc(C(=O)N/N=C3\C(=O)Nc4ccc(Br)cc43)cc2)cc1`, the concentration for half-maximal inhibition (IC50) worked out at 3790 nM in assay [7] and 610 nM in assay [8].

Regarding `O=C(Nc1ccc(C(=O)N/N=C2\C(=O)Nc3ccc(Br)cc32)cc1)Nc1ccc(Cl)c(C(F)(F)F)c1`, the IC50 in assay [7] worked out at 450 nM; in assay [8], 310 nM.

With `COc1ccc(NC(=O)Nc2ccc(C(=O)N/N=C3\C(=O)Nc4ccc(OC)cc43)cc2)cc1`, the IC50 amounted to 330 nM in assay [7] and 170 nM in assay [8].

For the compound `COc1cccc(NC(=O)Nc2ccc(C(=O)N/N=C3\C(=O)Nc4ccc(Br)cc43)cc2)c1`, the figures for the IC50 in assay [7] and in assay [8] were 1590 nM and 480 nM, respectively.

`COc1ccc(C(=O)Nc2ccc(C(=O)N/N=C3\C(=O)Nc4ccc(Br)cc43)cc2)cc1`: the IC50 in assay [7] was determined as 230 nM; in assay [8], 380 nM.

On to `COc1ccc2c(c1)/C(=N/NC(=O)c1ccc(NC(=O)Nc3ccccc3)cc1)C(=O)N2`, for which the IC50 in assay [7] turned out to be 3640 nM; in assay [8], 280 nM.

Regarding `COc1ccc2c(c1)/C(=N/NC(=O)c1ccc(NC(=O)c3ccc(Cl)cc3)cc1)C(=O)N2`, the figures for the IC50 in assay [7] and in assay [8] were 2010 nM and 390 nM, respectively.

Take `COc1cccc2c1C(=O)c1c(O)c3c(c(O)c1C2=O)C[C@@](O)(C(=O)CO)C[C@@H]3O[C@H]1C[C@H](N)[C@H](O)[C@H](C)O1` [DOXORUBICIN]: the 50% inhibitory concentration (IC50) in assay [1] is 80300 nM; in assay [2], 4100 nM; in assay [5], 1100 nM; in assay [3], 4360 nM.

In the case of `COc1ccc(C(=O)Nc2ccc(C(=O)N/N=C3\C(=O)Nc4ccc(OC)cc43)cc2)cc1`, the IC50 is 90 nM in assay [7] and 460 nM in assay [8].

`COc1ccc2c(c1)/C(=N/NC(=O)c1ccc(NC(=O)Nc3ccc(Cl)c(C(F)(F)F)c3)cc1)C(=O)N2`: the values for the IC50 in assay [7] and in assay [8] were 100 nM and 230 nM, respectively.

On to `COc1ccc2c(c1)/C(=N/NC(=O)c1ccc(NC(=O)Nc3ccc(Cl)cc3)cc1)C(=O)N2`, for which the figures for the IC50 in assay [7] and in assay [8] were 1820 nM and 390 nM, respectively.

With `COc1cccc(NC(=O)Nc2ccc(C(=O)N/N=C3\C(=O)Nc4ccc(Cl)cc43)cc2)c1`, the figures for the IC50 in assay [7] and in assay [8] were 1290 nM and 420 nM, respectively.
